Reference: patent publication US20230159453A1 (COCRYSTAL PHARMA, INC., priority 2020, published 2023)

Target: SARS2 protease (Severe acute respiratory syndrome coronavirus 2, UniProt P0DTD1)
Experiment: SARS-CoV-2 protease inhibition assay (SARS2 FRET protease assay)
Assay type: biochemical
Conditions: SARS-CoV-2 protease 25 nM, FRET, peptide substrate 1.3 μM, 30 minutes at 30° C., compounds 20 μM to 1.0 nM; read-out: IC50

In order of rising IC50:
1. CC(=O)N1CCC2(CC1)CC(CC(C=O)NC(=O)[C@H](CC1CCCCC1)NC(=O)c1cc3ccccc3[nH]1)C(=O)N2 (stereo partly drawn) [Compound C75, N-((2S)-1-((1-(8-acetyl-2-oxo-1,8-diazaspiro[4.5]decan-3-yl)-3-oxopropan-2-yl)amino)-3-cyclohexyl-1-oxopropan-2-yl)-1H-indole-2-carboxamide]  1.2 nM
2. CC(C)C[C@H](NC(=O)OCC(C)(C)c1cccc(Cl)c1)C(=O)N[C@@H](C[C@@H]1CCNC1=O)C(O)S(=O)(=O)O (stereo partly drawn) [Compound C72, Sodium (2S)-2-((S)-2-(((2-(3-chlorophenyl)-2-methylpropoxy)carbonyl)amino)-4-methylpentanamido)-1-hydroxy-3-((S)-2-oxopyrrolidin-3-yl)propane-1-sulfonate]  10 nM
3. CC(C)C[C@H](NC(=O)OC(Cc1ccccc1)c1ccccc1)C(=O)N[C@@H](C[C@@H]1CCNC1=O)C(O)S(=O)(=O)O (stereo partly drawn) [Compound C53, (2S)-2-((2S)-2-(((1,2-Diphenylethoxy)carbonyl)amino)-4-methylpentanamido)-1-hydroxy-3-((S)-2-oxopyrrolidin-3-yl)propane-1-sulfonate]  40 nM
4. CC(=O)N1CCC2(CC1)CC(CC(C=O)NC(=O)[C@H](CC(C)C)NC(=O)OCc1cccc(Cl)c1)C(=O)N2 (stereo partly drawn) [Compound C54, 3-Chlorobenzyl ((2S)-1-((1-(8-acetyl-2-oxo-1,8-diazaspiro[4.5]decan-3-yl)-3-oxopropan-2-yl)amino)-4-methyl-1-oxopentan-2-yl)carbamate]  100 nM
5. CC(C)C[C@H](NC(=O)OC1CCN(C(=O)OC(C)(C)C)c2ccccc21)C(=O)N[C@@H](C[C@@H]1CCNC1=O)C(O)S(=O)(=O)O (stereo partly drawn) [Compound C58, (2S)-2-((2S)-2-((((1-(tert-butoxycarbonyl)-1,2,3,4-tetrahydroquinolin-4-yl)oxy)carbonyl)amino)-4-methylpentanamido)-1-hydroxy-3-((S)-2-oxopyrrolidin-3-yl) propane-1-sulfonate]  100 nM
6. CC(C)C[C@H](NC(=O)OC1CCN(C(=O)OC(C)(C)C)c2ccccc21)C(=O)N[C@H](C=O)C[C@@H]1CCNC1=O (stereo partly drawn) [Compound C59, Tert-butyl 4-((((S)-4-methyl-1-oxo-1-(((S)-1-oxo-3-((S)-2-oxopyrrolidin-3-yl)propan-2-yl)amino)pentan-2-yl)carbamoyl)oxy)-3,4-dihydroquinoline-1(2H)-carboxylate]  100 nM
7. CC(=O)N1CCC2(CC1)CC(CC(C=O)NC(=O)[C@H](CC(C)C)NC(=O)OCC1CCC(F)(F)CC1)C(=O)N2 (stereo partly drawn) [Compound C64, (4,4-Difluorocyclohexyl)methyl ((2S)-1-((1-(8-acetyl-2-oxo-1,8-diazaspiro[4.5]decan-3-yl)-3-oxopropan-2-yl)amino)-4-methyl-1-oxopentan-2-yl)carbamate]  100 nM
8. CC(C)C[C@H](NC(=O)OCc1cccc(Cl)c1)C(=O)NC(C=O)CC1CC2(CCCCC2)NC1=O (stereo partly drawn) [Compound C66, 3-Chlorobenzyl ((2S)-4-methyl-1-oxo-1-((1-oxo-3-(2-oxo-1-azaspiro[4.5]decan-3-yl)propan-2-yl)amino)pentan-2-yl)carbamate]  100 nM
9. CC(=O)N1CCC2(CC1)CC(CC(C=O)NC(=O)[C@H](CC(C)C)NC(=O)OCC(C)(C)c1cccc(Cl)c1)C(=O)N2 (stereo partly drawn) [Compound C70, 2-(3-Chlorophenyl)-2-methylpropyl ((2S)-1-((1-(8-acetyl-2-oxo-1,8-diazaspiro[4.5]decan-3-yl)-3-oxopropan-2-yl)amino)-4-methyl-1-oxopentan-2-yl)carbamate]  100 nM
10. CC(C)C[C@H](NC(=O)OC1CCN(C(=O)OC(C)(C)C)CC1)C(=O)N[C@@H](C[C@@H]1CCNC1=O)C(O)S(=O)(=O)O (stereo partly drawn) [Compound C51, (2S)-2-((S)-2-((((1-(tert-butoxycarbonyl)piperidin-4-yl)oxy)carbonyl)amino)-4-methylpentanamido)-1-hydroxy-3-((S)-2-oxopyrrolidin-3-yl) propane-1-sulfonate]  115 nM
11. CC(C)C[C@H](NC(=O)OC(C)Cc1ccccc1)C(=O)N[C@@H](C[C@@H]1CCNC1=O)C(O)S(=O)(=O)O (stereo partly drawn) [Compound C50, (2S)-1-Hydroxy-2-((2S)-4-methyl-2-((((1-phenylpropan-2-yl)oxy)carbonyl)amino)pentanamido)-3-((S)-2-oxopyrrolidin-3-yl)propane-1-sulfonate]  119 nM
12. CC(=O)N1CCC2(CC1)CC(CC(C=O)NC(=O)[C@H](CC(C)C)NC(=O)c1cc3ccccc3[nH]1)C(=O)N2 (stereo partly drawn) [Compound C74, N-((2S)-1-((1-(8-acetyl-2-oxo-1,8-diazaspiro[4.5]decan-3-yl)-3-oxopropan-2-yl)amino)-4-methyl-1-oxopentan-2-yl)-1H-indole-2-carboxamide]  140 nM
13. CCOP(=O)(OCC)C(O)C(CC1CC2(CCN(C(C)=O)CC2)NC1=O)NC(=O)[C@H](CC1CCCCC1)NC(=O)c1cc2ccccc2[nH]1 (stereo partly drawn) [Compound C81, Diethyl (3-(8-acetyl-2-oxo-1,8-diazaspiro[4.5]decan-3-yl)-2-((S)-3-cyclohexyl-2-(1H-indole-2-carboxamido)propanamido)-1-hydroxypropyl)phosphonate]  200 nM
14. CC(=O)N1CCC2(CC1)CC(CC(C=O)NC(=O)[C@H](Cc1cccc(F)c1)NC(=O)OCc1cccc(Cl)c1)C(=O)N2 (stereo partly drawn) [Compound C67, 3-Chlorobenzyl ((2S)-1-((1-(8-acetyl-2-oxo-1,8-diazaspiro[4.5]decan-3-yl)-3-oxopropan-2-yl)amino)-3-(3-fluorophenyl)-1-oxopropan-2-yl)carbamate]  300 nM
15. CC(C)C[C@H](NC(=O)OC1(Cc2cccc(OCc3ccccc3)c2)CC1)C(=O)N[C@@H](CC1CCNC1=O)C(O)S(=O)(=O)O (stereo partly drawn) [Compound C76, Sodium (2S)-2-((S)-2-(((1-(3-(benzyloxy)benzyl)cyclopropoxy)carbonyl)amino)-4-methylpentanamido)-1-hydroxy-3-((S)-2-oxopyrrolidin-3-yl)propane-1-sulfonate]  380 nM
16. O=CC(CC1CC(Cc2ccccc2)NC1=O)NC(=O)[C@H](CC1CCCCC1)NC(=O)OCc1cccc(Cl)c1 (stereo partly drawn) [Compound C52, 3-Chlorobenzyl ((2S)-1-((1-(5-benzyl-2-oxopyrrolidin-3-yl)-3-oxopropan-2-yl)amino)-3-cyclohexyl-1-oxopropan-2-yl)carbamate]  500 nM
17. CC(C)C[C@H](NC(=O)OC1(Cc2ccccc2)CCC1)C(=O)N[C@H](C=O)C[C@@H]1CCNC1=O [Compound C56, 1-benzylcyclobutyl ((S)-4-methyl-1-oxo-1-(((S)-1-oxo-3-((S)-2-oxopyrrolidin-3-yl)propan-2-yl)amino)pentan-2-yl)carbamate]  600 nM
18. CC(C)C[C@H](NC(=O)OC1(Cc2cccc(OCc3ccccc3)c2)CC1)C(=O)N[C@H](C=O)C[C@@H]1CCNC1=O [Compound C60, 1-(3-(Benzyloxy)benzyl)cyclopropyl ((S)-4-methyl-1-oxo-1-(((S)-1-oxo-3-((S)-2-oxopyrrolidin-3-yl)propan-2-yl)amino)pentan-2-yl)carbamate]  600 nM
19. CC(C)C[C@H](NC(=O)OC1(Cc2ccccc2)CCC1)C(=O)N[C@@H](C[C@@H]1CCNC1=O)C(=O)C(N)=O [Compound C73, 1-Benzylcyclobutyl ((S)-1-(((S)-4-amino-3,4-dioxo-1-((S)-2-oxopyrrolidin-3-yl)butan-2-yl)amino)-4-methyl-1-oxopentan-2-yl)carbamate]  600 nM
20. CCCC1CCC(OC(=O)N[C@@H](CC(C)C)C(=O)NC(C=O)CC2CC3(CCN(C(C)=O)CC3)NC2=O)CC1 (stereo partly drawn) [Compound C77, 4-Propylcyclohexyl ((2S)-1-((1-(8-acetyl-2-oxo-1,8-diazaspiro[4.5]decan-3-yl)-3-oxopropan-2-yl)amino)-4-methyl-1-oxopentan-2-yl)carbamate]  600 nM
21. CC(C)C[C@H](NC(=O)OC(C)(C)Cc1ccccc1)C(=O)N[C@@H](C[C@@H]1CCNC1=O)C(O)S(=O)(=O)O (stereo partly drawn) [Compound C57, (2S)-1-hydroxy-2-((S)-4-methyl-2-((((2-methyl-1-phenylpropan-2-yl)oxy)carbonyl)amino)pentanamido)-3-((S)-2-oxopyrrolidin-3-yl)propane-1-sulfonate]  800 nM
22. CC(C)C[C@H](NC(=O)OC1(Cc2ccccc2)CCC1)C(=O)N[C@@H](C[C@@H]1CCNC1=O)C(O)S(=O)(=O)O (stereo partly drawn) [Compound C63, (2S)-2-((S)-2-(((1-Benzylcyclobutoxy)carbonyl)amino)-4-methylpentanamido)-1-hydroxy-3-((S)-2-oxopyrrolidin-3-yl)propane-1-sulfonate]  1600 nM
23. CC(C)C[C@H](NC(=O)OC1(Cc2cccnc2)CC1)C(=O)N[C@H](C=O)C[C@@H]1CCNC1=O [Compound C71, 1-(Pyridin-3-ylmethyl)cyclopropyl ((S)-4-methyl-1-oxo-1-(((S)-1-oxo-3-((S)-2-oxopyrrolidin-3-yl)propan-2-yl)amino)pentan-2-yl)carbamate]  1600 nM
24. CC(C)C[C@H](NC(=O)OC(Cc1ccccc1)c1ccccc1)C(=O)N[C@@H](C[C@@H]1CCNC1=O)C(=O)C(=O)NCc1ccccn1 (stereo partly drawn) [Compound C68, 1,2-Diphenylethyl ((S)-1-(((S)-3,4-dioxo-1-((S)-2-oxopyrrolidin-3-yl)-4-((pyridin-2-ylmethyl)amino)butan-2-yl)amino)-4-methyl-1-oxopentan-2-yl)carbamate]  2100 nM
25. CC(C)C[C@H](NC(=O)OC(C)(C)Cc1ccccc1)C(=O)N[C@@H](C[C@@H]1CCNC1=O)C(=O)C(N)=O [Compound C79]  3800 nM
26. CC(C)C[C@H](NC(=O)OC1(Cc2cccnc2)CC1)C(=O)N[C@@H](C[C@@H]1CCNC1=O)C(O)S(=O)(=O)O (stereo partly drawn) [Compound C62, (2S)-1-Hydroxy-2-((S)-4-methyl-2-(((1-(pyridin-3-ylmethyl)cyclopropoxy)carbonyl)amino)pentanamido)-3-((S)-2-oxopyrrolidin-3-yl)propane-1-sulfonate]  4600 nM
27. CCCCCOC(=O)N[C@@H](CC(C)C)C(=O)NC(C)(C=O)CC1CCNC1=O (stereo partly drawn) [Compound C65, Pentyl ((2S)-4-methyl-1-((2-methyl-1-oxo-3-(2-oxopyrrolidin-3-yl)propan-2-yl)amino)-1-oxopentan-2-yl) carbamate]  26900 nM
